# Measured values taken from patent publication US9603835B2, “Use of 3-(R)-[3-(2-methoxyphenylthio)-2-(S)-methylpropyl]amino-3,4-dihydro-2H-1,5-benzoxathiepine for treating cancer and in particular for preventing and/or treating cancer metastases” (PIERRE FABRE MEDICAMENT, priority 2011, dated 2017).
# How the values were obtained:
# [1] = biological target: T1, Nav1.5 voltage-gated sodium channels (Homo sapiens, UniProt Q14524); assay: Whole-cell patch-clamp, repeated depolarisation protocol, MDA-MB-231 cells; type: cell-based
# T1 construct: said cells express, inter alia, functional Nav1.5 voltage-gated sodium channels; endogenous in cells; host or cells: MDA-MB-231
# T1 sequence (Q14524 1-2016 isoform Q14524-4): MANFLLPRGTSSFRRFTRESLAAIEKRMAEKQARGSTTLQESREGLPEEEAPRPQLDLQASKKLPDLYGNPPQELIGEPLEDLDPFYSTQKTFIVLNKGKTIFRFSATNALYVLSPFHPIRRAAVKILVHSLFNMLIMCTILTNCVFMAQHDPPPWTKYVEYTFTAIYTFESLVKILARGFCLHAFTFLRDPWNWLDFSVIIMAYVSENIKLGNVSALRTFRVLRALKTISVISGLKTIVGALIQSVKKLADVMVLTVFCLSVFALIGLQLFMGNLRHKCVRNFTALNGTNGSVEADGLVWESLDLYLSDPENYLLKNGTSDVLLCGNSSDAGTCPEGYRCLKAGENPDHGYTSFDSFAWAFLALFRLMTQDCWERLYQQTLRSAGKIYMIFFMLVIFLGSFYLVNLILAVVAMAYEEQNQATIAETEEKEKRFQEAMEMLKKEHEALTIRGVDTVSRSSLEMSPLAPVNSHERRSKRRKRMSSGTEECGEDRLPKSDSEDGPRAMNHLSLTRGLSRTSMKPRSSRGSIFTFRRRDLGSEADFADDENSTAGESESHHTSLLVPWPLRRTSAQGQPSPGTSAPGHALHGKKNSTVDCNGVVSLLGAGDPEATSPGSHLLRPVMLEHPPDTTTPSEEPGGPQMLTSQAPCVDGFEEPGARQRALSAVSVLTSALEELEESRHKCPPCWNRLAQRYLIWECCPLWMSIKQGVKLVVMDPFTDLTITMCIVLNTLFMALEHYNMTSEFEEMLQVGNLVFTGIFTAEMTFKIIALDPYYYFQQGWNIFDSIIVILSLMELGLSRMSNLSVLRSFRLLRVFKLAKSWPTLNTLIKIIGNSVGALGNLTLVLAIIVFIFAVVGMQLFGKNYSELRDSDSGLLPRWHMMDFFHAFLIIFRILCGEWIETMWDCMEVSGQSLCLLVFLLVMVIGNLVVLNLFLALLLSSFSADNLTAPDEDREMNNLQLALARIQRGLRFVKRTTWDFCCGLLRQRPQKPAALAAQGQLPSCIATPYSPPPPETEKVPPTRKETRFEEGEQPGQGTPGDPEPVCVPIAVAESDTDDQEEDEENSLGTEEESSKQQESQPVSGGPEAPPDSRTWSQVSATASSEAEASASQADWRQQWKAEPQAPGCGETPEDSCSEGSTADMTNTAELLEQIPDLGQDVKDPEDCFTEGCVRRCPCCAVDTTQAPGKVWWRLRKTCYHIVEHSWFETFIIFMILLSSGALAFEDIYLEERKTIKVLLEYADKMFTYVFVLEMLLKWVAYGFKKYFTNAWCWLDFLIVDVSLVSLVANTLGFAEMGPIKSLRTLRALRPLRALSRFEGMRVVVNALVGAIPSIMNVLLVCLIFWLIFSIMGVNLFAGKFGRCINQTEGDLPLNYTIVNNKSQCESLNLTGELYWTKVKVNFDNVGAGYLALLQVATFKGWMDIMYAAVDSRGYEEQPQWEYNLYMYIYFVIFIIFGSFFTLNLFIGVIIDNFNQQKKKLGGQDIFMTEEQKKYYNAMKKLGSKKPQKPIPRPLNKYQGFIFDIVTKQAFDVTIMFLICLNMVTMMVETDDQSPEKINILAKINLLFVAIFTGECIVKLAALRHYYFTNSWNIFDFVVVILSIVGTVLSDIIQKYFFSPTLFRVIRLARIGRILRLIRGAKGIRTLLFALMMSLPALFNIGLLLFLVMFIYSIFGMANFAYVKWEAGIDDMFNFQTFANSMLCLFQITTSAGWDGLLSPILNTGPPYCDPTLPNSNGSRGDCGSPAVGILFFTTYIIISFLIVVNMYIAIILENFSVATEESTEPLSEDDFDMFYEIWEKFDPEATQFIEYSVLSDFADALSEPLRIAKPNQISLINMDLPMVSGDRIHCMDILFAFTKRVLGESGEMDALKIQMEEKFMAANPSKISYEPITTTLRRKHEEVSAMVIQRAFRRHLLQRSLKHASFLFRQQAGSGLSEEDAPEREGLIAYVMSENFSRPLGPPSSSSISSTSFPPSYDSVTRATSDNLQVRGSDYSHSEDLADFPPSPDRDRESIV
# From the text: Merely as an illustration, the inventors chose to use the MDA-MB-231 line, which is a highly metastatic human mammary adenocarcinoma line, in the experiment. […] However, the pharmacological tools in question are not suitable for precise characterisation of the nature of the Nav1.5 sodium current involved in the metastatic process. […] For this reason, the inventors consider that 3-(R)-[3-(2-methoxyphenylthio)-2-(S)-methyl-propyl]amino-3,4-dihydro-2H-1,5-benzoxathiepine has anti-metastatic properties in relation to cancer cells expressing the Nav1.5 channel. As such, it is important to note that numerous types of metastatic cancer have been reported as expressing the Nav1.5 channel.
# Cell culture: the MDA-MB-231 cells are cultured in a Dulbecco's modified Eagle's medium, (Life Technologies LTD, Paisley, UK) supplemented with 4 mM L-glutamine and 10% foetal calf serum. The cells are inoculated in 100 mm culture dishes and placed in an incubator at 37° C., 100% moisture and 5% CO2.
# Electrophysiological measurements in “whole cell” configuration: the patch pipette (resistance 5-15 MΩ) contains a solution of: 5 mM NaCl, 145 mM CsCl, 2 mM MgCl2, 1 mM CaCl2, 10 mM HEPES and 11 mM EGTA, the pH is adjusted to 7.4 with CsOH. The reference electrode is immersed in the extracellular medium consisting of a solution of: 140 mM NaCl, 4 mM KCl, 2 mM MgCl2, 11 mM glucose, 10 mM HEPES, the pH is adjusted to 7.4 with NaOH. These two electrodes are connected to an Axopatch 200B amplifier (Axon Instrument). The currents are filtered using a Bessel filter at a frequency of 5 kHz and are sampled at a frequency of 5 kHz using the Digidata interface (1200). The data acquisition and analysis are performed using pClamp software (Axon Instrument). The holding potential is set to −110 mV to record the maximum Nav channel activity.
# Two protocols were used: • 1/ “Voltage-dependent current INa” protocol for observing the maximum amplitude of INa according to the voltage applied. Depolarisations in 5 mV stages are performed at a frequency of 0.2 Hz, from −110 to +60 mV. […]
# Cytotoxicity = type: cell-based
# [2] = In vivo effect on normal cardiac function; conditions: even at high doses
SMILES,peak current inhibition ([1]; 1 µM),peak current inhibition ([1]; 5 µM),"IC50 ([1]; MDA-MB-231 cells, whole cell patch-clamp, concentration-dependent, read-out: reduction of the metastatic Nav1.5 current (IC50))",cytotoxicity (Cytotoxicity),interference with normal cardiac function [2]
NC1=N[C@H](O)[C@H]2[C@H]3O[C@]4(O)O[C@@H]([C@@H](O)[C@@]2(N1)[C@@H]4O)[C@]3(O)CO [tetrodotoxin],30±7%,54±8%,–,–,–
"COc1ccccc1SC[C@@H](C)CN[C@@H]1COc2ccccc2SC1 [3-(R)-[3-(2-methoxyphenylthio)-2-(S)-methyl-propyl]amino-3,4-dihydro-2H-1,5-benzoxathiepine]",–,–,1500 nM,not cytotoxic,does not interfere with normal cardiac function
